Test results: the supplement of paper PMC10627819

Legend:
B. subtilis 168 [1] = test: fitness (endpoint OD595 vs no drug) (fraction); higher = more growth
Summary of the method: (§1)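 In 384-well plates at 37 °C, cultures began at OD595 0.01 in 30 µl, with 55 µl used for S. pneumoniae. OD595 readings every 30 min for 14 h were corrected by the first reading. Fitness divides the stationary-phase transition optical density by the robust mean of no-drug control wells. The result is capped at 1.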

S. pneumoniae D39V [2] = test: as above
Summary of the method: as §1

B. subtilis 168 [3] = test: Bliss interaction score (quartile over a dose matrix) (fitness difference); higher = more antagonism (negative = synergy)
Summary of the method: (§2)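 Growth was read as OD595 when cultures entered stationary phase, and each value was divided by the plate's robust no-drug mean and capped at 1. This normalised ratio is the fitness value, and fitness for each single drug came from the combination data. The Bliss score subtracts the expected fitness, taken as the product, from the observed fitness and is given as quartiles across technical, biological and donor/recipient replicates.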

S. aureus Newman = test: as above
Summary of the method: as §2

S. aureus DSM 20231 = test: as above
Summary of the method: as §2

S. pneumoniae D39V [4] = test: as above
Summary of the method: as §2
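For Bliss interaction score (quartile over a dose matrix) in this document: first quartile when negative (synergy) and third quartile when positive (antagonism).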
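For fitness (endpoint OD595 vs no drug) in this document: OD595 on entry to stationary phase over no-drug wells; at most 1.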

C[C@H]1COc2c(N3CCN(C)CC3)c(F)cc3c(=O)c(C(=O)O)cn1c23 [Levofloxacin] + CN(N=O)C(=O)N[C@@H](C=O)[C@@H](O)[C@H](O)[C@H](O)CO [Streptozotocin]
fitness, one replicate
Settings | first compound 0.001 µg/mL | first compound 0.002 µg/mL | first compound 0.0039 µg/mL | first compound 0.0312 µg/mL | first compound 0.0625 µg/mL | first compound 0.125 µg/mL | first compound 0.2 µg/mL | first compound 0.4 µg/mL | first compound 0.8 µg/mL
B. subtilis 168 [1], partner 0.15 µg/mL | 0.98 | 0.923 | 0.934 | 0.0317 | 0.0292 | 0.0367 | – | – | –
B. subtilis 168 [1], partner 0.3 µg/mL | 0.96 | 0.948 | 0.886 | 0.0288 | 0.0412 | 0.0451 | – | – | –
B. subtilis 168 [1], partner 0.6 µg/mL | ≥ 1 | ≥ 1 | 0.979 | 0.025 | 0.0304 | 0.0177 | – | – | –
S. pneumoniae D39V [2], partner 1.2 µg/mL | – | – | – | – | – | – | 0.925 | 0.759 | 0.259
S. pneumoniae D39V [2], partner 2.4 µg/mL | – | – | – | – | – | – | 0.909 | 0.802 | 0.302
S. pneumoniae D39V [2], partner 4.8 µg/mL | – | – | – | – | – | – | 0.823 | 0.603 | 0.0669

fitness, S. pneumoniae D39V [2]
Settings | first compound 0.1725 µg/mL | first compound 0.345 µg/mL | first compound 0.69 µg/mL
partner 1.2 µg/mL | 0.938 | 0.816 | 0.362
partner 2.4 µg/mL | 0.936 | 0.845 | 0.398
partner 4.8 µg/mL | 0.952 | 0.841 | 0.44

Settings | Bliss interaction score
B. subtilis 168 [3] | 0.0603
S. aureus DSM 20231 | -0.0228
S. aureus Newman | -0.102
S. pneumoniae D39V [4] | -0.0624

C[C@H]1COc2c(N3CCN(C)CC3)c(F)cc3c(=O)c(C(=O)O)cn1c23 [Levofloxacin] + CN[C@@H]1[C@H](O)[C@H](NC)[C@H]2O[C@@]3(O)C(=O)C[C@@H](C)O[C@H]3O[C@@H]2[C@H]1O [Spectinomycin]
fitness, one replicate
Settings | first compound 0.001 µg/mL | first compound 0.002 µg/mL | first compound 0.0039 µg/mL | first compound 0.2 µg/mL | first compound 0.4 µg/mL | first compound 0.8 µg/mL
B. subtilis 168 [1], partner 2 µg/mL | 0.986 | 0.966 | 0.988 | – | – | –
B. subtilis 168 [1], partner 4 µg/mL | 0.955 | 0.888 | ≥ 1 | – | – | –
B. subtilis 168 [1], partner 8 µg/mL | 0.99 | 0.912 | ≥ 1 | – | – | –
S. pneumoniae D39V [2], partner 4 µg/mL | – | – | – | 0.96 | 0.868 | 0.446
S. pneumoniae D39V [2], partner 8 µg/mL | – | – | – | 0.9 | 0.804 | 0.508

fitness
Settings | first compound 0.0312 µg/mL | first compound 0.0625 µg/mL | first compound 0.125 µg/mL | first compound 0.1725 µg/mL | first compound 0.345 µg/mL | first compound 0.69 µg/mL
B. subtilis 168 [1], partner 2 µg/mL | 0.036 | 0.0431 | 0.0402 | – | – | –
B. subtilis 168 [1], partner 4 µg/mL | 0.0347 | 0.0352 | 0.0401 | – | – | –
B. subtilis 168 [1], partner 8 µg/mL | 0.0234 | 0.0342 | 0.0261 | – | – | –
S. pneumoniae D39V [2], partner 4 µg/mL | – | – | – | 0.875 | 0.808 | 0.41
S. pneumoniae D39V [2], partner 8 µg/mL | – | – | – | 0.928 | 0.816 | 0.439
S. pneumoniae D39V [2], partner 16 µg/mL | – | – | – | 0.835 | 0.737 | 0.396

Settings | Bliss interaction score
B. subtilis 168 [3] | -0.0192
S. aureus DSM 20231 | 0.0353
S. aureus Newman | -0.0582
S. pneumoniae D39V [4] | -0.0643

C[C@H]1COc2c(N3CCN(C)CC3)c(F)cc3c(=O)c(C(=O)O)cn1c23 [Levofloxacin] + CN[C@@H]1[C@H](O[C@H]2[C@H](O[C@H]3[C@H](O)[C@@H](O)[C@H](N=C(N)N)[C@@H](O)[C@@H]3N=C(N)N)O[C@@H](C)[C@]2(O)C=O)O[C@@H](CO)[C@H](O)[C@H]1O [Streptomycin]
fitness, one replicate
Settings | first compound 0.001 µg/mL | first compound 0.002 µg/mL | first compound 0.0039 µg/mL | first compound 0.2 µg/mL | first compound 0.4 µg/mL | first compound 0.8 µg/mL
B. subtilis 168 [1], partner 2 µg/mL | 0.963 | 0.952 | 0.932 | – | – | –
B. subtilis 168 [1], partner 4 µg/mL | ≥ 1 | 0.737 | 0.832 | – | – | –
B. subtilis 168 [1], partner 8 µg/mL | 0.252 | 0.0282 | 0.047 | – | – | –
S. pneumoniae D39V [2], partner 2 µg/mL | – | – | – | 0.955 | 0.855 | 0.346
S. pneumoniae D39V [2], partner 16 µg/mL | – | – | – | 0.718 | 0.602 | 0.208

fitness
Settings | partner 2 µg/mL | partner 4 µg/mL | partner 8 µg/mL
B. subtilis 168 [1], first compound 0.0312 µg/mL | 0.0408 | 0.0413 | 0.0242
B. subtilis 168 [1], first compound 0.0625 µg/mL | 0.0475 | 0.0546 | 0.033
B. subtilis 168 [1], first compound 0.125 µg/mL | 0.0446 | 0.0475 | 0.0333
S. pneumoniae D39V [2], first compound 0.1725 µg/mL | 0.942 | 0.923 | 0.927
S. pneumoniae D39V [2], first compound 0.2 µg/mL | – | 0.9 | 0.798
S. pneumoniae D39V [2], first compound 0.345 µg/mL | 0.817 | 0.812 | 0.788
S. pneumoniae D39V [2], first compound 0.4 µg/mL | – | 0.806 | 0.704
S. pneumoniae D39V [2], first compound 0.69 µg/mL | 0.316 | 0.422 | 0.445
S. pneumoniae D39V [2], first compound 0.8 µg/mL | – | 0.307 | 0.293

Settings | Bliss interaction score
B. subtilis 168 [3] | 0.0365
S. aureus DSM 20231 | -0.0487
S. aureus Newman | 0.0694
S. pneumoniae D39V [4] | -0.0992

C[C@H]1COc2c(N3CCN(C)CC3)c(F)cc3c(=O)c(C(=O)O)cn1c23 [Levofloxacin] + COc1c(N2C[C@@H]3CCCN[C@@H]3C2)c(F)cc2c(=O)c(C(=O)O)cn(C3CC3)c12 [Moxifloxacin]
B. subtilis 168 [1], first compound 0.001 µg/mL, one replicate
Settings | fitness
partner 0.0312 µg/mL | 0.575
partner 0.0625 µg/mL | 0.0212
partner 0.125 µg/mL | 0

Settings | fitness
B. subtilis 168 [1], first compound 0.002 µg/mL, partner 0.0312 µg/mL | 0.0439
B. subtilis 168 [1], first compound 0.002 µg/mL, partner 0.0625 µg/mL | 0.0254
B. subtilis 168 [1], first compound 0.002 µg/mL, partner 0.125 µg/mL | 0.0489
B. subtilis 168 [1], first compound 0.0039 µg/mL, partner 0.0312 µg/mL | 0.0651
B. subtilis 168 [1], first compound 0.0039 µg/mL, partner 0.0625 µg/mL | 0.0551
B. subtilis 168 [1], first compound 0.0039 µg/mL, partner 0.125 µg/mL | 0.0554
B. subtilis 168 [1], first compound 0.0078 µg/mL, partner 0.0312 µg/mL | 0.0472
B. subtilis 168 [1], first compound 0.0078 µg/mL, partner 0.0625 µg/mL | 0.0515
B. subtilis 168 [1], first compound 0.0078 µg/mL, partner 0.125 µg/mL | 0.0578
B. subtilis 168 [1], first compound 0.0312 µg/mL, partner 2 µg/mL | 0.0397
B. subtilis 168 [1], first compound 0.0312 µg/mL, partner 4 µg/mL | 0.0257
B. subtilis 168 [1], first compound 0.0312 µg/mL, partner 8 µg/mL | 0.0215
B. subtilis 168 [1], first compound 0.0625 µg/mL, partner 2 µg/mL | 0.0387
B. subtilis 168 [1], first compound 0.0625 µg/mL, partner 4 µg/mL | 0.0417
B. subtilis 168 [1], first compound 0.0625 µg/mL, partner 8 µg/mL | 0.0241
B. subtilis 168 [1], first compound 0.125 µg/mL, partner 2 µg/mL | 0.0455
B. subtilis 168 [1], first compound 0.125 µg/mL, partner 4 µg/mL | 0.0375
B. subtilis 168 [1], first compound 0.125 µg/mL, partner 8 µg/mL | 0.0205
S. pneumoniae D39V [2], first compound 0.1725 µg/mL, partner 0.0037 µg/mL | 0.882
S. pneumoniae D39V [2], first compound 0.1725 µg/mL, partner 0.0075 µg/mL | 0.848
S. pneumoniae D39V [2], first compound 0.1725 µg/mL, partner 0.015 µg/mL | 0.887
S. pneumoniae D39V [2], first compound 0.2 µg/mL, partner 0.005 µg/mL | 0.899
S. pneumoniae D39V [2], first compound 0.2 µg/mL, partner 0.01 µg/mL | 0.943
S. pneumoniae D39V [2], first compound 0.2 µg/mL, partner 0.02 µg/mL | 0.857
S. pneumoniae D39V [2], first compound 0.345 µg/mL, partner 0.0037 µg/mL | 0.723
S. pneumoniae D39V [2], first compound 0.345 µg/mL, partner 0.0075 µg/mL | 0.69
S. pneumoniae D39V [2], first compound 0.345 µg/mL, partner 0.015 µg/mL | 0.738
S. pneumoniae D39V [2], first compound 0.4 µg/mL, partner 0.005 µg/mL | 0.842
S. pneumoniae D39V [2], first compound 0.4 µg/mL, partner 0.01 µg/mL | 0.85
S. pneumoniae D39V [2], first compound 0.4 µg/mL, partner 0.02 µg/mL | 0.77
S. pneumoniae D39V [2], first compound 0.69 µg/mL, partner 0.0037 µg/mL | 0.418
S. pneumoniae D39V [2], first compound 0.69 µg/mL, partner 0.0075 µg/mL | 0.391
S. pneumoniae D39V [2], first compound 0.69 µg/mL, partner 0.015 µg/mL | 0.489

Settings | Bliss interaction score
B. subtilis 168 [3] | 0.0308
S. aureus DSM 20231 | -0.0852
S. aureus Newman | -0.201
S. pneumoniae D39V [4] | -0.0874
